Assay results reported in patent US20070166729A1, “Method and reagent for sequencing” (Hitachi, Ltd., priority 2005, published 2007).

Legend:
[1] = tested on: luciferase luminescence reaction with ATP produced using PPi; test: Luminescence from DNA complementary strand synthesis at varying AMP concentrations (FIG. 7); format: biochemical; settings: luminescence obtained by adding DNA
Text: FIG. 7 is a graph showing the relationship between AMP concentrations and signal intensity variations obtained in luciferase luminescence reaction with ATP produced using PPi obtained in DNA complementary strand synthesis. The horizontal axis of the graph indicates AMP concentrations in the reaction solution;
The luminescence obtained by adding DNA (light emitted by PPi obtained in DNA complementary strand synthesis) is generated only in the presence of AMP. […] AMP concentrations giving sufficient luminescence intensity are within the range of 30 to 600 μM. As is obvious, the use of AMP within this concentration range enables sequencing with 0.1 pmol DNA sample.

thermostable PPDK = settings: cited from earlier work; for Specificity / Michaelis constants: thermostable PPDK; for Specificity: relative value in brackets, AMP = 100; for Michaelis constants: substrate named in brackets
luciferase [2] = target: T1, luciferase (Photinus pyralis, UniProt P08659); test: APS as substrate for luminescent reaction catalyzed by luciferase; format: biochemical; settings: 5 μM APS, reaction solution 100 μl
T1 sequence (P08659 whole entry, species assumed): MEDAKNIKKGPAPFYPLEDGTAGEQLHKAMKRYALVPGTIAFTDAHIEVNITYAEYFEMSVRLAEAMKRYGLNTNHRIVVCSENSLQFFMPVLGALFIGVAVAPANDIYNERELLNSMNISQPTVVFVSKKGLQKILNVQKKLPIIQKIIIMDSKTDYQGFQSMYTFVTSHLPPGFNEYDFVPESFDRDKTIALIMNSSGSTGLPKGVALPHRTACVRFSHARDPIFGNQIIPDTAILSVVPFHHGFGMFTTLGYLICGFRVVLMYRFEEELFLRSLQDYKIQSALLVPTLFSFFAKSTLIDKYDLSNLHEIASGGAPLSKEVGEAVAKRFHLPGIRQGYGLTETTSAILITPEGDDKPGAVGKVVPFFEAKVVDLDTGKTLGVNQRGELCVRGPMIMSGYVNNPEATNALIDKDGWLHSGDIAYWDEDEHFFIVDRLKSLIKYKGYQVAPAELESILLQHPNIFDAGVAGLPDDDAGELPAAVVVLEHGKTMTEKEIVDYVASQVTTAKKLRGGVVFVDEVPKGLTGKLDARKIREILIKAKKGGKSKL
Description: Pyrosequencing detects chemiluminescence derived from ATP produced from the reaction of PPi produced in DNA complementary strand synthesis with APS in the presence of ATP sulfurylase. […] For example, APS, though having approximately 1/1000 of reaction efficiency of ATP, reacts as a substrate with luciferase to emit light. To efficiently convert PPi produced in complementary strand synthesis to ATP, approximately 5 μM APS must usually be added to the reaction solution. When the volume of the reaction solution is set to 100 μl, 5 μM APS generates luminescence corresponding to approximately 500 fmol ATP. Thus, DNA sequencing with high precision by pyrosequencing must employ a DNA sample of a picomole level and large amounts of reagents commensurate therewith.
When sequencing is performed with 0.1 pmol DNA sample, which is 1/10 of the DNA sample amount (1 pmol) conventionally used, the amount of background light must be equal to or lower than the amount of chemiluminescence emitted by 0.01 pmol ATP. […] Under the conditions of pyrosequencing, the efficiency of the luminescence process with ATP as a substrate is reduced due to the coexistence of apyrase, an enzyme that degrades dNTP and ATP. […]

luciferase [3] = target: T1, luciferase; settings: relative to ATP, cited from earlier work
ATP sulfurylase = ATP sulfurylase (Saccharomyces cerevisiae, UniProt P08536); settings: read-out: Michaelis constant of reaction for forming the complexes of APS and the enzyme (Km), has been reported; cited from earlier work
Chain of ATP sulfurylase (P08536 whole entry, species assumed): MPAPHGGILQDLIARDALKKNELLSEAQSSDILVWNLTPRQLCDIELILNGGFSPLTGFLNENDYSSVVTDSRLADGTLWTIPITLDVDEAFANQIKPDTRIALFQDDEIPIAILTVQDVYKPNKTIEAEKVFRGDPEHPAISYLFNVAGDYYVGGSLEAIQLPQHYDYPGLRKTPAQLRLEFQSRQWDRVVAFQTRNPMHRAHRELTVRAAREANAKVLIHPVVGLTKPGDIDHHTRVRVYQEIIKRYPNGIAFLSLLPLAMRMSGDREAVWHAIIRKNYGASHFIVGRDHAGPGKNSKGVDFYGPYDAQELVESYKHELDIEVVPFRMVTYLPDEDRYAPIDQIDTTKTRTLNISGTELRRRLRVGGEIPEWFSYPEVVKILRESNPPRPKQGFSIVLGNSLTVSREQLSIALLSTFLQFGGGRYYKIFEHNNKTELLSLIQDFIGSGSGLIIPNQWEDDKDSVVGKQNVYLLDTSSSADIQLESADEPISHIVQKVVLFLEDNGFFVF

thermostable luciferase = settings: substrate named in brackets; cited from earlier work

Row | Compound | Specificity (thermostable PPDK) | Michaelis constants (thermostable PPDK) [µM] | also measured
1 | Nc1ncnc2c1ncn2[C@@H]1O[C@H](COP(=O)(O)O)[C@@H](O)[C@H]1O [AMP] | 100 | 501 | AMP concentration at luminescence peak [1]: around 100 μM; Km (thermostable PPDK; have been reported, read-out: Michaelis constants (Km) of PPDK and AMP): 5 µM
2 | Nc1ncnc2c1ncn2[C@@H]1O[C@H](COP(=O)(O)OS(=O)(=O)O)[C@@H](O)[C@H]1O [APS, adenosine 5′-phosphosulfate] |  |  | luminescence corresponding to ATP (luciferase [2]): approximately 500 fmol; reaction efficiency of ATP (fraction) as luciferase substrate (luciferase [3]): approximately 1/1000; activity to ATP as substrate for luminescent reaction catalyzed by luciferase (luciferase [3]; has been reported): 0.6×10^−3; Km (ATP sulfurylase): 0.56 µM
3 | Nc1ncnc2c1ncn2[C@@H]1O[C@H](COP(=O)(O)OP(=O)(O)OP(=O)(O)O)[C@@H](O)[C@H]1O [ATP] |  | 201 | 
4 | Nc1ccn([C@@H]2O[C@H](COP(=O)(O)O)[C@@H](O)[C@H]2O)c(=O)n1 [CMP] | CMP (0), GMP (0) |  | 
5 | O=C(O)[C@H]1CSC(c2nc3ccc(O)cc3s2)=N1 [D-luciferin] |  |  | Michaelis constants (thermostable luciferase): 1.5104 M (D-luciferin)
6 | Nc1nc2c(ncn2[C@@H]2O[C@H](COP(=O)(O)O)[C@@H](O)[C@H]2O)c(=O)[nH]1 [GMP] | CMP (0), GMP (0) |  | 
7 | O=P(O)(O)OP(=O)(O)O [PPi, pyrophosphate] |  | 381 | 
8 | Cc1cn([C@H]2C[C@H](O)[C@@H](COP(=O)(O)O)O2)c(=O)[nH]c1=O [TMP] | 0 |  | 
9 | O=c1ccn([C@@H]2O[C@H](COP(=O)(O)O)[C@@H](O)[C@H]2O)c(=O)[nH]1 [UMP] | 0 |  | 
10 | C=C(OP(=O)(O)O)C(=O)O [phosphoenolpyruvate] |  | 281 | 
